# Reference: publication PMC7803973, “Structural basis of malaria parasite phenylalanine tRNA-synthetase inhibition by bicyclic azetidines” (Nature Communications, 2021)
# “And” between values parts separate entries of the source, which are not always exact repeats. Identical values can stand only once.
# Tests used:
# PfcFRS mutant (L550V) = PfcFRS mutant (L550V) (Plasmodium falciparum, UniProt Q8I246, L550V); assay: Malachite green aminoacylation enzyme inhibition assay; type: biochemical
# Experimental: (§1) These were done using malachite green assay as per earlier published reports[1],[6]. Briefly, the reaction was performed for 100 µM ATP, 50 µM L-phenylalanine and 100 nM recombinant PheRS enzymes (Pf, Pv, Hs, Pf mutant (L550V)) in a buffer containing 30 mM HEPES (pH 7.5), 150 mM, NaCl, 30 mM KCl, 50 mM, MgCl2, 1 mM DTT, and 2 U/ml E. coli inorganic pyrophosphatase (NEB) at 37 °C. Enzymatic reactions (50 μl total volume) were performed in clear, flat-bottomed, 96-well plates (Costar 96-well standard microplates). The reaction mixture was incubated for 2 h at 37 °C. The reaction was stopped by adding 12.5 μl of malachite green solution to the reaction mixture and levels of inorganic phosphate (Pi) were detected after incubation of 5 min at room temperature. Absorbance was the measured at 620 nm using a Spectramax M2 (Molecular Devices). Reactions without FRS enzyme were performed as background controls, values of which were subtracted from the reactions with enzyme. BRD1389 was added to our aminoacylation assay reaction buffer in varying concentrations ranging from 0.1 nM to 10,000 nM. The IC50 value for the data is shown for three replicates as the mean ± SD.
# PvcFRS = molecular target: T1, PvcFRS (Plasmodium vivax, UniProt A5K9S0); assay: as above; type: biochemical
# T1 construct: Full-length PvcFRS was also purified according to the same protocol; vector-encoded tag of pETM11 (own knowledge: N-terminal His6 with TEV site); Ni-NTA purification; made in house; host or cells: E. coli strain B834
# T1 sequence (A5K464 whole entry): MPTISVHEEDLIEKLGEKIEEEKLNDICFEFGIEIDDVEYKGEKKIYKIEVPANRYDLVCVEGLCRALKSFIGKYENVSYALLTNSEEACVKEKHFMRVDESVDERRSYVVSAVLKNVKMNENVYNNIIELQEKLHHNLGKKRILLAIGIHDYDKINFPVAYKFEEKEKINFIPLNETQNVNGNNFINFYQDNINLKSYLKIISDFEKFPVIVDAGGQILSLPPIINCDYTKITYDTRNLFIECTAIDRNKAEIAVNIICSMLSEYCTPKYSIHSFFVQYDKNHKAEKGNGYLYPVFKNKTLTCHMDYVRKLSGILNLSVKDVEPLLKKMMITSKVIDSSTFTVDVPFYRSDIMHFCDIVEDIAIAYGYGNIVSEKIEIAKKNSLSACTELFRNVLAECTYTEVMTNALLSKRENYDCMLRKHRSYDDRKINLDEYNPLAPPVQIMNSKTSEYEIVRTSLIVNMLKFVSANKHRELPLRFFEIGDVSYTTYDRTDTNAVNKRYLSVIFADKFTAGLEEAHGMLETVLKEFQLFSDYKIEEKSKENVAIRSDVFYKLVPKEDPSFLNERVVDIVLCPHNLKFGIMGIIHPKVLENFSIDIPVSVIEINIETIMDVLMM
# T1 sequence (A5K9S0 whole entry): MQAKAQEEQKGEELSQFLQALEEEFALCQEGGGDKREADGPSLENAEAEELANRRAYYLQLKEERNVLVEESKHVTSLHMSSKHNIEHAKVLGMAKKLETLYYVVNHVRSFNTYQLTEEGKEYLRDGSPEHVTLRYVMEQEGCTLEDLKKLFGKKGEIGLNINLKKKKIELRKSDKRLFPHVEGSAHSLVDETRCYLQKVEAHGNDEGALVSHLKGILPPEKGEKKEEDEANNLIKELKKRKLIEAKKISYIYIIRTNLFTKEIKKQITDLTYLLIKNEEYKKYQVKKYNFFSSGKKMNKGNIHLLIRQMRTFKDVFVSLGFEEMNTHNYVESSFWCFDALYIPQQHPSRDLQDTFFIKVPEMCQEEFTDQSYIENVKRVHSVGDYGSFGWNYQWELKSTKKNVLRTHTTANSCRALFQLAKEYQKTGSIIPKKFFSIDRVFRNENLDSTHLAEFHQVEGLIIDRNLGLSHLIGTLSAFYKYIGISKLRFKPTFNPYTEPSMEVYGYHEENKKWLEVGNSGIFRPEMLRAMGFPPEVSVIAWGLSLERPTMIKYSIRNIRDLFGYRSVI
# Experimental: as §1
# HscFRS = HscFRS (Homo sapiens, UniProt Q9Y285); assay: as above; type: biochemical
# Sequence of HscFRS (Q9NSD9 whole entry): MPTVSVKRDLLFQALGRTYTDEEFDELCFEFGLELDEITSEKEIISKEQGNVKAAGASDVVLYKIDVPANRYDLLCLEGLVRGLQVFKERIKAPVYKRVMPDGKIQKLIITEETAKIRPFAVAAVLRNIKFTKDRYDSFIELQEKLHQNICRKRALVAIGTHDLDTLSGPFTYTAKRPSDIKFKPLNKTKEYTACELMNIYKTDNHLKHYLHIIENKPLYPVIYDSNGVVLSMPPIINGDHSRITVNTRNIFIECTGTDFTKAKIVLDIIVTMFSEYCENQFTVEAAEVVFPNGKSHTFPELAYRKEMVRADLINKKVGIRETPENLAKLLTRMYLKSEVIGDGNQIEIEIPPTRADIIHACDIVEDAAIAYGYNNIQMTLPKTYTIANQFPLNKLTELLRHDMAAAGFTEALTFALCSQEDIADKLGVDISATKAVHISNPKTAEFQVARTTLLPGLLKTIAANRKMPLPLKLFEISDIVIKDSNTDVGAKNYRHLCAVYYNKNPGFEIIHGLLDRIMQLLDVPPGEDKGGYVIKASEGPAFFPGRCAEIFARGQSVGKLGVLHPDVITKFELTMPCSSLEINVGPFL
# Sequence of HscFRS (Q9Y285 whole entry): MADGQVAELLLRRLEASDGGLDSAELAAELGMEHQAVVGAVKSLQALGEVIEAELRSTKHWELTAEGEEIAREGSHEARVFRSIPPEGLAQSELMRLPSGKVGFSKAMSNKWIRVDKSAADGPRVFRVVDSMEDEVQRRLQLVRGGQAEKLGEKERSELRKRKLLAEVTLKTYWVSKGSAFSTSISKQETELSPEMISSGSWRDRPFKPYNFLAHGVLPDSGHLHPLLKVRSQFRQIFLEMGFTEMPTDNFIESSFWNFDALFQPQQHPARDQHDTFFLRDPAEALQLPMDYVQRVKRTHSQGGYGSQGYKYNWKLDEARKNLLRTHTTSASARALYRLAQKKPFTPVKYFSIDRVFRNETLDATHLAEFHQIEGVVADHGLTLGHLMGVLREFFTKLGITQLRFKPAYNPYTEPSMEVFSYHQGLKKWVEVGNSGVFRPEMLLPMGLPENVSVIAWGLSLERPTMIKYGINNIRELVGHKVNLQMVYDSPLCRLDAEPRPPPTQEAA
# Experimental: as §1
# [1] = test system: Plasmodium falciparum strain K1; assay: microbe, parasite or virus in culture; type: cell-based
# Experimental: The cultivation of P. falciparum was conducted according to Trager’s method with some modification. Precisely, parasites were kept in culture flasks with RPMI1640 medium supplemented with 10% human plasma and 2% fresh human erythrocytes and incubated at 37 °C with the gas condition of 5% CO2 and 5% O2. The parasitemia (percentage of infected erythrocytes to total erythrocytes) were kept within 0.25–10%. Culture medium was replaced, and fresh erythrocytes were supplied every 2–3 days. Drug susceptibility test was conducted according to Desjardins’s method[18] with some modification. […] […] The plates were kept at 37 °C with the gas condition of 5% CO2 and 5% O2 for 72 h and then parasite growth was quantified with Makler’s method to detect plasmdoial lactate dehydrogenase[19] with some modification. Precisely, culture plates were kept in freezer overnight and then thawed at 37 °C to disrupt the erythrocytes and parasite cells. In the new 96-well titer plates, 100 μl of enzyme reaction solution (110 mM Li-lactate, 0.5 mM acetylpyridine-adenine dinucleotide, 50 mM Tris (pH 7.5), 10 mM EDTA, 50 mM KCl, and 15 g l^−1 PEG6000) and 20 µl of freeze-thaw culture were mixed in each well and then kept at room temperature for 30 min. The detection solution was prepared by mixing equal volume of 2 mg ml^−1 nitro blue tetrazolium and 0.1 mg ml^−1 phenazine ethosulfate and 20 µl of the solution was added to each well.
# [2] = 2 h, read-out: % Enzyme Activity
# Sequence of PfcFRS mutant (L550V) (Q8IIW2 whole entry, stated change not applied): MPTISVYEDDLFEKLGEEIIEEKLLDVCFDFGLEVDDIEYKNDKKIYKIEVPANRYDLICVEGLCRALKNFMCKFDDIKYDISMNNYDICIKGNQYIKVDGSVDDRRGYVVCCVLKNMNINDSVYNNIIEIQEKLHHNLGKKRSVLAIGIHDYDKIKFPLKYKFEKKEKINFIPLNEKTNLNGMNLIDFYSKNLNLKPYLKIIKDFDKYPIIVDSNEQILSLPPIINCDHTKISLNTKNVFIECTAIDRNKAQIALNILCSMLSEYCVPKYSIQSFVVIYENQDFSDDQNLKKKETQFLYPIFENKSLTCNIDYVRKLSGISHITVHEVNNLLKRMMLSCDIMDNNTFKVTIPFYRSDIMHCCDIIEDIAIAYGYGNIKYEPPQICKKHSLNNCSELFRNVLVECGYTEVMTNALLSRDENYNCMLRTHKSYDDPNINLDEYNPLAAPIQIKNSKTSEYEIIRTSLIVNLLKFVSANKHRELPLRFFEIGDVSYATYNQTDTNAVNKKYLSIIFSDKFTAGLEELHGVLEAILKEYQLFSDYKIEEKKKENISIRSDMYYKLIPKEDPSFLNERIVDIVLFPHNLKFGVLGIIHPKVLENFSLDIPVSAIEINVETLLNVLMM
# Sequence of PfcFRS mutant (L550V) (Q8I246 whole entry, stated change not applied): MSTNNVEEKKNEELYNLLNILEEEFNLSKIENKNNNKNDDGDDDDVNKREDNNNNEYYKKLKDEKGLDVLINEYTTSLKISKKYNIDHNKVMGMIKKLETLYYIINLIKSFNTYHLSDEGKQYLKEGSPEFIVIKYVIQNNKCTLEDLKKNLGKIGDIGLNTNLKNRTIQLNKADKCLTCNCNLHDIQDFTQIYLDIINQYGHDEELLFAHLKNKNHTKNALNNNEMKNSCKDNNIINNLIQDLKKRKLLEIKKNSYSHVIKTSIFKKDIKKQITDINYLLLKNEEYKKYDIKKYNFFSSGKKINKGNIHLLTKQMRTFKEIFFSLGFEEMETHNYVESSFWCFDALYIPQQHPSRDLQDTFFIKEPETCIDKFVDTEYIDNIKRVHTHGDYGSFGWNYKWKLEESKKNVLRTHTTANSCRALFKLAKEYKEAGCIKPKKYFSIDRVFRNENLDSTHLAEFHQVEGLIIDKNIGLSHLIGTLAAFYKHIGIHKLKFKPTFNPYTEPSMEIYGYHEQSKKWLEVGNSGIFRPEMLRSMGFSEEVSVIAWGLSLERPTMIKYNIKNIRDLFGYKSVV
smiles,measurement,setting,value
COC[C@@H]1[C@H](c2ccc(C#Cc3ccccc3)cc2)[C@@H]2CN(C(=O)Nc3ccc(OC4CC4)cc3)C[C@@H](O)[C@@H](O)CN12 [BRD1389],IC50,PfcFRS mutant (L550V),1000 nM
same,remaining activity at 1 pM,PfcFRS mutant (L550V); [2],100%
same,remaining activity at 0.0001 µM,PfcFRS mutant (L550V); [2],99.5%
same,remaining activity at 0.001 µM,PfcFRS mutant (L550V); [2],98%
same,remaining activity at 0.01 µM,PfcFRS mutant (L550V); [2],95.2%
same,remaining activity at 0.1 µM,PfcFRS mutant (L550V); [2],75.4%
same,remaining activity at 1 µM,PfcFRS mutant (L550V); [2],55.3%
same,remaining activity at 10 µM,PfcFRS mutant (L550V); [2],18.8%
same,remaining activity at 100 µM,PfcFRS mutant (L550V); [2],0%
same,remaining activity at 1 pM,PvcFRS; [2],100%
same,IC50,PvcFRS; Pv cFRS aminoacylation activity,25 ± 1 nM
same,remaining activity at 0.0001 µM,"PvcFRS; PvcFRS, BRD1389 0.0001 uM",95.4%
same,remaining activity at 0.001 µM,"PvcFRS; PvcFRS, BRD1389 0.001 uM",86.2%
same,remaining activity at 0.01 µM,"PvcFRS; PvcFRS, BRD1389 0.01 uM",60.7%
same,remaining activity at 0.1 µM,"PvcFRS; PvcFRS, BRD1389 0.1 uM",20.7%
same,remaining activity at 1 µM,"PvcFRS; PvcFRS, BRD1389 1 uM",8.61%
same,remaining activity at 10 µM,"PvcFRS; PvcFRS, BRD1389 10 uM",2.17%
same,remaining activity at 100 µM,"PvcFRS; PvcFRS, BRD1389 100 uM",0%
same,IC50,HscFRS; Hs cFRS aminoacylation activity,12000 nM
same,remaining activity at 0.0001 µM,"HscFRS; HscFRS, BRD1389 0.0001 uM",99.6%
same,remaining activity at 0.001 µM,"HscFRS; HscFRS, BRD1389 0.001 uM",100%
same,remaining activity at 0.01 µM,"HscFRS; HscFRS, BRD1389 0.01 uM",99.7%
same,remaining activity at 0.1 µM,"HscFRS; HscFRS, BRD1389 0.1 uM",90.2%
same,remaining activity at 1 µM,"HscFRS; HscFRS, BRD1389 1 uM",85%
same,remaining activity at 10 µM,"HscFRS; HscFRS, BRD1389 10 uM",49.5%
same,remaining activity at 100 µM,"HscFRS; HscFRS, BRD1389 100 uM",20%
same,% Parasite Growth,"[1]; K1, 0.000976562 ug/mL",92.8%
same,% Parasite Growth,"[1]; K1, 0.00195312 ug/mL",94.4%
same,% Parasite Growth,"[1]; K1, 0.00390625 ug/mL",90.7%
same,% Parasite Growth,"[1]; K1, 0.0078125 ug/mL",40.5%
same,% Parasite Growth,"[1]; K1, 0.015625 ug/mL",14.2%
same,% Parasite Growth,"[1]; K1, 0.03125 ug/mL",15.9%
same,% Parasite Growth,"[1]; K1, 0.0625 ug/mL",4.7%
same,% Parasite Growth,"[1]; K1, 0.125 ug/mL",2.9%
same,% Parasite Growth,"[1]; K1, 0.25 ug/mL",2.1%
same,% Parasite Growth,"[1]; K1, 0.5 ug/mL",2.6%
same,% Parasite Growth,"[1]; K1, 1 ug/mL",2.6%
same,IC50,"[1]; Plasmodium falciparum, K1",0.00685 µg/mL and 12.1 nM
same,EC50,"[1]; Plasmodium falciparum, K1, 72 h",12 nM
